# In paper PMC9851200, “Multiparameter phenotypic screening for endogenous TFEB and TFE3 translocation identifies novel chemical series modulating lysosome function” (Autophagy, 2022):
# Where two headings read alike, the source gives them in different places.
# Columns and labels:
# Assay in all cases: biochemical
# Type in all cases: binding
# [1] = molecular target: T1, cellular kinases of SH-SY5Y cells (Homo sapiens, UniProt O14920); conditions: 2µM; SH-SY5Y cells; Labeling Site Lys2; DLKPENIVLQQGEQR; read-out: KiNativ in-cell binding, % Inhibition, IKBKB/IKKb
# T1 construct: endogenous in cells; host or cells: SH-SY5Y
# T1 sequence (O14920 whole entry): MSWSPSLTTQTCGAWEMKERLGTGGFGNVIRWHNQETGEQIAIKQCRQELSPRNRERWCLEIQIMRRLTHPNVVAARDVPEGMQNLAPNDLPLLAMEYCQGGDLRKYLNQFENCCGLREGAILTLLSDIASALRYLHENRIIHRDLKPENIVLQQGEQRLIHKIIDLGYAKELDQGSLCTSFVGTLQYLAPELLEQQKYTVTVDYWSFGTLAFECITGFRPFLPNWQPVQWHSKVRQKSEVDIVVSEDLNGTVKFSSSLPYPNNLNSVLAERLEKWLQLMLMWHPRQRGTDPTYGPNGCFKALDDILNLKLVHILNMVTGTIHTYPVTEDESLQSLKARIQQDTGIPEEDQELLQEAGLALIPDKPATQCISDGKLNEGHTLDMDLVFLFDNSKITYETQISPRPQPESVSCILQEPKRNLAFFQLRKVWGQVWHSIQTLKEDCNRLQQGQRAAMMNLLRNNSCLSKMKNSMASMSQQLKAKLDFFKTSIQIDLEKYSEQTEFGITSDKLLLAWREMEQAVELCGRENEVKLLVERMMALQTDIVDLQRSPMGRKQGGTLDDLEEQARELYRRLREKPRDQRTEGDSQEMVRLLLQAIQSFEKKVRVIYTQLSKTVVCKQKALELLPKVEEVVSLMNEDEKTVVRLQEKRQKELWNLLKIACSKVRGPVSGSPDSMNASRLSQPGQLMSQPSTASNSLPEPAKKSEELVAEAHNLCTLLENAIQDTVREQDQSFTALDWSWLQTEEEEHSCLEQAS
# Source text: (§1) As KINOMEscan is an in vitro assay, and as different cell types have variable kinase expression profiles we sought to determine the kinase binding profile in our SH-SY5Y TFEB-relocalization cell model. […] Bound kinases were pulled down and analyzed by mass spectrometry to determine the in situ kinase binding profile for each compound.
# [2] = molecular target: cellular kinases of SH-SY5Y cells (Homo sapiens, UniProt O00329); conditions: 2µM; SH-SY5Y cells; Labeling Site ATP; VNWLAHNVSKDNRQ; read-out: KiNativ in-cell binding, % Inhibition, PIK3CD
# Source text: as §1
# [3] = molecular target: T2, cellular kinases of SH-SY5Y cells (Homo sapiens, UniProt Q96PY6); conditions: 2µM; SH-SY5Y cells; Labeling Site Lys2; DIKSQNIFLTK; read-out: KiNativ in-cell binding, % Inhibition, NEK1
# T2 construct: endogenous in cells; host or cells: SH-SY5Y
# Source text: as §1
# [4] = molecular target: cellular kinases of SH-SY5Y cells (Homo sapiens, UniProt Q2M2I8); conditions: 2µM; SH-SY5Y cells; labeling site Lys2; peptide DLKVENILLHDR
# cellular kinases of SH-SY5Y cells (Homo sapiens, UniProt Q2M2I8), sequence (Q2M2I8 whole entry): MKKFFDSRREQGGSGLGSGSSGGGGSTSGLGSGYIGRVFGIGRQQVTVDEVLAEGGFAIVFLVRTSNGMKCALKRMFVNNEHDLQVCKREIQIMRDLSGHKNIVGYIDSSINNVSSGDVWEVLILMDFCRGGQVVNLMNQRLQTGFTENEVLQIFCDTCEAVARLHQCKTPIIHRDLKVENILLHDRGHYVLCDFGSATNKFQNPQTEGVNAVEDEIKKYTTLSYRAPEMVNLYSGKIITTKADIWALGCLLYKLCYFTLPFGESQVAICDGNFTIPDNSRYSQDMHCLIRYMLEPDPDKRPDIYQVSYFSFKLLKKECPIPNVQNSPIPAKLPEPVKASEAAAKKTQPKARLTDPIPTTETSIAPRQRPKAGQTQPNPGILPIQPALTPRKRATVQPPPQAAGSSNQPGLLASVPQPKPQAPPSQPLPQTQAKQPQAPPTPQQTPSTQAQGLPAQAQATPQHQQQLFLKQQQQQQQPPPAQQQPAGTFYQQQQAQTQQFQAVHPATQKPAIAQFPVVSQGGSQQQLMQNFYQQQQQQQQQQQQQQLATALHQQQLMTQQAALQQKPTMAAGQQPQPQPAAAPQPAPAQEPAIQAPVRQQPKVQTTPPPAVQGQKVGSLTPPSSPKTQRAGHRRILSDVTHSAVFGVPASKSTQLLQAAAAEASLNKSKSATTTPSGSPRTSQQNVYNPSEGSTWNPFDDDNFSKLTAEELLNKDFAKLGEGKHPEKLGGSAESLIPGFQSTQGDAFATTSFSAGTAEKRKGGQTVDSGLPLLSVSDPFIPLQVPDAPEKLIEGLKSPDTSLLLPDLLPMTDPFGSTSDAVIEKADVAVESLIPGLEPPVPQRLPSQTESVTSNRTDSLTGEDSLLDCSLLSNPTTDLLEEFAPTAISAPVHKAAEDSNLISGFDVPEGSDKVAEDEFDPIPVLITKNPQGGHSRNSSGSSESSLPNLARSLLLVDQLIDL
# Source text: as §1
# [5] = molecular target: T3, cellular kinases of SH-SY5Y cells (Homo sapiens, UniProt Q9BYT3); conditions: 2µM; SH-SY5Y cells; Labeling Site Lys2; DLKLENIMVK; read-out: KiNativ in-cell binding, % Inhibition, STK33
# T3 construct: endogenous in cells; host or cells: SH-SY5Y
# Source text: as §1
# [6] = molecular target: T4, cellular kinases of SH-SY5Y cells (Homo sapiens, UniProt Q96BR1); conditions: 2µM; SH-SY5Y cells; Labeling Site Lys1; FYAVKVLQK; read-out: KiNativ in-cell binding, % Inhibition, SGK3
# T4 construct: endogenous in cells; host or cells: SH-SY5Y
# Source text: as §1
# [7] = molecular target: cellular kinases of SH-SY5Y cells (Homo sapiens, UniProt Q00534); conditions: 2µM; SH-SY5Y cells; labeling site Lys2; peptide DLKPQNILVTSSGQIK
# Source text: as §1
# [8] = molecular target: cellular kinases of SH-SY5Y cells (Homo sapiens, UniProt P54760); conditions: 2µM; SH-SY5Y cells; Labeling Site Activation Loop; FLEENSSDPTYTSSLGGKIPIR; read-out: KiNativ in-cell binding, % Inhibition, EphB4
# Source text: as §1
# [9] = molecular target: T5, cellular kinases of SH-SY5Y cells (Homo sapiens, UniProt Q12851); conditions: 2µM; SH-SY5Y cells; Labeling Site Lys2; DIKGANLLLTLQGDVK; read-out: KiNativ in-cell binding, % Inhibition, GCK
# T5 construct: endogenous in cells; host or cells: SH-SY5Y
# Source text: as §1
# [10] = molecular target: cellular kinases of SH-SY5Y cells (Homo sapiens, UniProt P41240); conditions: 2µM, SH-SY5Y cells, read-out: KiNativ in-cell binding, % Inhibition, CSK
# cellular kinases of SH-SY5Y cells (Homo sapiens, UniProt P41240), sequence (P41240 whole entry): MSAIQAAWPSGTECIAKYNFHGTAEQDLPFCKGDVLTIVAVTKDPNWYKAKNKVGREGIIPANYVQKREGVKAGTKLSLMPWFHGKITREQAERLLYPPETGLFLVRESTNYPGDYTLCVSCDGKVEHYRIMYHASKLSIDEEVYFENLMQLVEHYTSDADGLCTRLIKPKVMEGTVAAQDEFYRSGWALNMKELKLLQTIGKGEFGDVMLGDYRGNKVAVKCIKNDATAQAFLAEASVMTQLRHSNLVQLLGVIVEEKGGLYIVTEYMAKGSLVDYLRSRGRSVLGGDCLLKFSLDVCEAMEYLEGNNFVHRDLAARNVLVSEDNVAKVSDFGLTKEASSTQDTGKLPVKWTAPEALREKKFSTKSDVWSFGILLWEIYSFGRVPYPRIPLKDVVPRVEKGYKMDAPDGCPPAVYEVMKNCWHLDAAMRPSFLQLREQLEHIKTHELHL
# Source text: as §1
# [11] = molecular target: cellular kinases of SH-SY5Y cells (Homo sapiens, UniProt Q8TDX7); conditions: 2µM; SH-SY5Y cells; labeling site Lys1; peptide AACLLDGVPVALKK
# Source text: as §1
# [12] = molecular target: T6, cellular kinases of SH-SY5Y cells (Homo sapiens, UniProt Q15418); conditions: 2µM, SH-SY5Y cells
# T6 construct: endogenous in cells; host or cells: SH-SY5Y
# T6 sequence (Q15418 whole entry): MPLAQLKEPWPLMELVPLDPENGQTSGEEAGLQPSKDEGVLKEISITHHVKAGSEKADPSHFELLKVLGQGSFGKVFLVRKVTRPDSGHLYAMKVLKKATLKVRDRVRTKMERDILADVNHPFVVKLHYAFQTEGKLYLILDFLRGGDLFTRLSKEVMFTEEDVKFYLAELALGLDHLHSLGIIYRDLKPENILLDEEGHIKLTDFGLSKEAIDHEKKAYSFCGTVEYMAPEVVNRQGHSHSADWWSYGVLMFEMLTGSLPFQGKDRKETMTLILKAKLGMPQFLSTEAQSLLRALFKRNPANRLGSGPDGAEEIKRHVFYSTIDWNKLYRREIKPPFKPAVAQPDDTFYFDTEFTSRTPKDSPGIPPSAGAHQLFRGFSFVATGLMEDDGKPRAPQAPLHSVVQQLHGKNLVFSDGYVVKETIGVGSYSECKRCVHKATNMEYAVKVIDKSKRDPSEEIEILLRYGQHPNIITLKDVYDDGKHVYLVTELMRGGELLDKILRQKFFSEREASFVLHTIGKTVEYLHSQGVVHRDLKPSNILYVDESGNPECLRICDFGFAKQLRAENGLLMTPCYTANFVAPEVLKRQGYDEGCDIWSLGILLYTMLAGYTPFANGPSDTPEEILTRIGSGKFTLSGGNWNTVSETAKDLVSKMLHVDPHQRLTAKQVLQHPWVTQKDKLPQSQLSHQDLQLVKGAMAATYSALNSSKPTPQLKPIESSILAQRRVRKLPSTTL
# Source text: as §1
# [13] = molecular target: cellular kinases of SH-SY5Y cells (Homo sapiens, UniProt P42338); conditions: 2µM; SH-SY5Y cells; Labeling Site ATP; VFGEDSVGVIFKNGDDLRQDMLTLQMLR; read-out: KiNativ in-cell binding, % Inhibition, PIK3CB
# Source text: as §1
# [14] = molecular target: T7, cellular kinases of SH-SY5Y cells (Homo sapiens, UniProt Q9Y4K4); conditions: 2µM, SH-SY5Y cells, read-out: KiNativ in-cell binding, % Inhibition, MAP4K5
# T7 construct: endogenous in cells; host or cells: SH-SY5Y
# T7 sequence (Q9Y4K4 whole entry): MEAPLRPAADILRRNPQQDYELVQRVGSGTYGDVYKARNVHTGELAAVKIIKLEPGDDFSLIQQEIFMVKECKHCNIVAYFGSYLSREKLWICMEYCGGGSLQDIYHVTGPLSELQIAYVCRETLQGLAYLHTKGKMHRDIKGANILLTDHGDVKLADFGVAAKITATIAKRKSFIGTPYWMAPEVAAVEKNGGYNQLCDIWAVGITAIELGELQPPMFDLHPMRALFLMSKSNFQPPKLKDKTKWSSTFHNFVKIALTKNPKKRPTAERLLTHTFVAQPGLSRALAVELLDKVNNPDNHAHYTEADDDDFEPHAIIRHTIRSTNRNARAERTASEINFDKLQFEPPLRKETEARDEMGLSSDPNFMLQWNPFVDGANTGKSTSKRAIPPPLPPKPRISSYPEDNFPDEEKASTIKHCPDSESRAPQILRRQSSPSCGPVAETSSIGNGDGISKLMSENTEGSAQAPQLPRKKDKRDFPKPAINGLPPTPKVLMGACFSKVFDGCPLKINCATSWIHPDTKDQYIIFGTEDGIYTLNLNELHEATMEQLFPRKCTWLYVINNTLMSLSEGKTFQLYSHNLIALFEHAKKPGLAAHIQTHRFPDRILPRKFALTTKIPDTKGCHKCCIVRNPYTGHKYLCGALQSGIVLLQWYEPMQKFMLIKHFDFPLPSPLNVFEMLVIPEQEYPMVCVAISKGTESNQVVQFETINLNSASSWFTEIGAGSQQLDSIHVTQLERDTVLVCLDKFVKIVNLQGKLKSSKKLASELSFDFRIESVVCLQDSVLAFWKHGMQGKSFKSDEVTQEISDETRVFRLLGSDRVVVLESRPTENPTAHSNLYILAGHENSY
# Source text: as §1
# [15] = molecular target: cellular kinases of SH-SY5Y cells (Homo sapiens, UniProt Q8IU85); conditions: 2µM, SH-SY5Y cells
# cellular kinases of SH-SY5Y cells (Homo sapiens, UniProt Q8IU85), sequence (Q8IU85 whole entry): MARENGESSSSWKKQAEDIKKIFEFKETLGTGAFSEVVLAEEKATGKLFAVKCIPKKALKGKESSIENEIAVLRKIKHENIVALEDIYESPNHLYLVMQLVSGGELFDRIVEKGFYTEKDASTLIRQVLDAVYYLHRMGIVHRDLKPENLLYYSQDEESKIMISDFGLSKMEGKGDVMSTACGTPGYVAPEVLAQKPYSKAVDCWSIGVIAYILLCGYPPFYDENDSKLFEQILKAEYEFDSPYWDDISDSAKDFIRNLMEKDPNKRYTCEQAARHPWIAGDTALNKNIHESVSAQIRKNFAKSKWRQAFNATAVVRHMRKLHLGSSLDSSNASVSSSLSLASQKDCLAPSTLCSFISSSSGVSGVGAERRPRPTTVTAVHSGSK
# Source text: as §1
# [16] = molecular target: cellular kinases of SH-SY5Y cells (Homo sapiens, UniProt Q14012); conditions: 2µM; SH-SY5Y cells; labeling site Lys1; peptide LVAIKCIAK
# Source text: as §1
# [17] = molecular target: T8, cellular kinases of SH-SY5Y cells (Homo sapiens, UniProt Q52WX2); conditions: 2µM; SH-SY5Y cells; Labeling Site Lys2; DIKPENVLLFDR; read-out: KiNativ in-cell binding, % Inhibition, SBK1/SBK
# T8 construct: endogenous in cells; host or cells: SH-SY5Y
# Source text: as §1
# [18] = molecular target: cellular kinases of SH-SY5Y cells (Homo sapiens, UniProt Q15349); conditions: 2µM; SH-SY5Y cells; labeling site Lys2; peptide DLKPENILLDEEGHIKITDFGLSK
# cellular kinases of SH-SY5Y cells (Homo sapiens, UniProt Q15349), sequence (Q15349 whole entry): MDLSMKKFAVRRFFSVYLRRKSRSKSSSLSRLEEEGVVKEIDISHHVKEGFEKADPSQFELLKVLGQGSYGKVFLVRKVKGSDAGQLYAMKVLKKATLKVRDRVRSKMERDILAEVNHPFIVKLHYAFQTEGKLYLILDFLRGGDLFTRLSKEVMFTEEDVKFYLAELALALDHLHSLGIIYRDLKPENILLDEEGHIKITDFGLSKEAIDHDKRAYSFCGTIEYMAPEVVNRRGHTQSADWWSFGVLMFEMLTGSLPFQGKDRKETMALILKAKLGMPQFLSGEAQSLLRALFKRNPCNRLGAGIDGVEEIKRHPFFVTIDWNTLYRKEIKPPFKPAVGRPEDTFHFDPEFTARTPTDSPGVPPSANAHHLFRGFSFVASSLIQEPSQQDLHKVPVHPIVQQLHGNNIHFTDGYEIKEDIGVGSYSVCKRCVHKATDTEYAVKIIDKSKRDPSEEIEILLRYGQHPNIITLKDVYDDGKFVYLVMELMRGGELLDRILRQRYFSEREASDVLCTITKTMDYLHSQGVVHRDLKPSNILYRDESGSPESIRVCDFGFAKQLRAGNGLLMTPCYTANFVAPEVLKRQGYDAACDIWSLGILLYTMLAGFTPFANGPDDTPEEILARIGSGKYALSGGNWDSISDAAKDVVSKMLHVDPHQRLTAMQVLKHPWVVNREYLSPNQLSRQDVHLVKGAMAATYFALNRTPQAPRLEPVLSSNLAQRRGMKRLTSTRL
# Source text: as §1
# [19] = molecular target: cellular kinases of SH-SY5Y cells (Homo sapiens, UniProt P15056); conditions: 2µM; SH-SY5Y cells; labeling site Lys2; peptide DLKSNNIFLHEDLTVK
# Source text: as §1
smiles,measurement,setting,value
Cc1cccc(-c2nc(Nc3ccc4ncsc4c3)c3ccccc3n2)n1 [NK140],inhibition at 2 µM,[1],-43%
same,inhibition at 2 µM,[2],-29.2%
same,inhibition at 2 µM,[3],-13%
same,"KiNativ in-cell binding, AAK1",[4],-42.8
same,inhibition at 2 µM,[5],-1.4%
same,inhibition at 2 µM,[6],1%
same,"KiNativ in-cell binding, CDK6",[7],-30.7
same,inhibition at 2 µM,[8],-33.5%
same,inhibition at 2 µM,[9],11.6%
same,inhibition at 2 µM,"[10]; Labeling Site Activation Loop, VSDFGLTKEASSTQDTGKLPVK",21.6%
same,inhibition at 2 µM,"[10]; Labeling Site Lys1, VAVKCIK",4.7%
same,"KiNativ in-cell binding, NEK7",[11],-3.8
same,inhibition at 2 µM,"[12]; Labeling Site Activation Loop, LTDFGLSKEAIDHEKK, read-out: KiNativ in-cell binding, % Inhibition, RPS6KA1/RSK1 domain1",-25.4%
same,inhibition at 2 µM,"[12]; Labeling Site Lys2, DLKPSNILYVDESGNPECLR, read-out: KiNativ in-cell binding, % Inhibition, RPS6KA1/RSK1 domain2",-53.6%
same,inhibition at 2 µM,[13],-11.4%
same,inhibition at 2 µM,"[14]; Labeling Site Lys1, NVHTGELAAVKIIK",27.4%
same,inhibition at 2 µM,"[14]; Labeling Site Lys2, DIKGANILLTDHGDVK",26.4%
same,inhibition at 2 µM,"[15]; Labeling Site Lys1, LFAVKCIPK, read-out: KiNativ in-cell binding, % Inhibition, CaMK1d",-23%
same,"KiNativ in-cell binding, CaMK1d","[15]; labeling site Lys2, peptide DLKPENLLYYSQDEESK",-24.1
same,"KiNativ in-cell binding, CaMK1",[16],-56.2
same,inhibition at 2 µM,[17],3.5%
same,"KiNativ in-cell binding, RSK3 domain1",[18],-68.0
same,"KiNativ in-cell binding, BRAF, BRAF V600E",[19],-25.8
